By EC50 is commonly meant the concentration giving half of the maximal effect.

This note sets out measurements from patent US20260125375A1 (Pfizer Inc., priority 2022, published 2026).

The target of this assay is T1, C-CBL (Homo sapiens, UniProt P22681).
T1 construct: endogenous in cells; host or cells: Jurkat HiBit-IL2 reporter cells, CBL-B knocked out by CRISPR
The experiment in a line: Jurkat HiBit-IL2 assay (CBL-B KO), reporter cell line expressing C-CBL only. Format: cell-based. The conditions noted are these: geometric mean, read-out: CBL-B KO EC50 (nM) GMean. In a few lines:
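IL-2 secretion was measured by HiBiT luminescence after 1 h compound exposure (0.1% DMSO) and 4 h TCR/CD28 stimulation (final anti-CD3 1 μg/ml, anti-CD28 2 μg/ml, 37 °C) of Jurkat reporters lacking c-CBL or CBL-B. EC50 came from fold-of-effect versus stimulated-only cells, as geometric means across tests.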
(In general: With HiBiT, luminescence reflects the tagged protein that the partner subunit can reach.)

Where [1] appears, read: CBL-B KO (C-CBL only), anti-CD3/anti-CD28 stimulation 4 hours, Table 16a.
Where [2] appears, read: CBL-B KO (expressing C-CBL only), Table 16b (further repetition).

Where two headings read alike, the source gives them in different places.

`Cn1cnnc1[C@@H](c1cccc(-c2n[nH]c3c(CNC4CCCC4)nc(C(F)(F)F)cc23)c1)C1CCC1` [Example D4]: the EC50 under setting [1] stood at 479 nM.

Regarding `C[C@H](NC1CCC1)c1nc(C(F)(F)F)cc2c(-c3cccc(C4(Cc5nncn5C)COC4)c3)n[nH]c12` [Example F1, N-{(1S)-1-[3-(3-{3-[(4-methyl-4H-1,2,4-triazol-3-yl)methyl]oxetan-3-yl}phenyl)-5-(trifluoromethyl)-1H-pyrazolo[3,4-c]pyridin-7-yl]ethyl}cyclobutanamine], the EC50 under setting [1] amounted to 60 nM and the EC50 under setting [2] is 56 nM.

Regarding `C[C@H](N)c1nc(C(F)(F)F)cc2c(-c3cccc([C@H](c4nncn4C)C4CCC4)c3)n[nH]c12` [Example K12, (1S)-1-[3-{3-[(R)-cyclobutyl(4-methyl-4H-1,2,4-triazol-3-yl)methyl]phenyl}-5-(trifluoromethyl)-1H-pyrazolo[3,4-c]pyridin-7-yl]ethan-1-amine], under setting [2], the EC50 was 2080 nM.
